Test [1] relates to carrageenin induced paw edema. As to the kind of experiment: Antiinflammatory effect on carrageenin induced paw edema (Experiments 3, 8). The settings on record: inhibition rate in oral administration = 1.00. The class given is in vivo, Wistar male rats. The procedure:
The antiinflammatory effect of the test compositions in Experiment 1 was determined by an effect on carrageenin induced paw edema. The experiment was performed using 8 Wistar male rats weighing approximately 170 g per one group. After previously measuring the volume of left hind paw, 50 mg each of the test compositions (stored at room temperature for one month after the preparation) was applied twice, left hind paw of the rat, 2 hours and 1 hour before injection of an inflammatory agent. As the inflammatory agent, 0.1 ml of a 1% carrageenin solution was subcutaneously injected at the left hind paw. The volume of the left hind paw was measured 3 hours after and a swelling was determined based on the volume before injecting the inflammatory agent. A group in which no test composition was applied was made a control group and the inhibition rate was calculated based thereon as follows. [formula]
The antiinfammatory effect was examined with the test compositions of Experiment 7, in a manner similar to Experiment 3.

Test [2] deals with carrageenin induced paw edema. The settings on record: 5 mg/kg, Folia Pharmacologica Japonica vol. 70, page 543 (1974); cited from earlier work.

The text below walks through data of patent US4534980A, “Antiinflammatory and antipyretic cream” (Hokuriku Pharmaceutical Co., Ltd., priority 1984, dated 1985).

For the compound `CC(C(=O)O)c1cccc(C(=O)c2ccccc2)c1` (centres unmarked) [Ketoprofen], in test [1], the “Potency Ratio (Table 3)” value was 1.00. Further, the “Inhibition Rate, Oral Administration (Table 3)” value in test [2] is 45.9%.
